According to patent US6576662B2, “Compounds having anticancer activity : process for their preparation and pharmaceutical compositions containing them” (Dr. Reddy's Laboratories Limited, priority 2000, dated 2003):
Like-named read-outs stand apart in the source and are kept apart here. Values belong to the compound of their own block, whether it stands above or below them.

Assays:
A498 = experiment: in vitro anti-cancer screen, Sulforhodamine B method; format: cell-based, human; settings: RENAL: A498, 48 h incubation, read-out: GROWTH INHIBITION (GI 50)
Protocol: (§1) Each test compound was screened against a battery of cell lines representing eight different types of cancers. In a typical procedure, 1×10^4 cells were seeded into each well of 96 well plate in 100 μL volume of RPMI 1640 medium containing antibiotics and 10% FCS.
(§2) The plates were incubated at 37° C. in presence of CO2. After 24 h, test compounds were evaluated at five 10 fold dilutions ranging from 100 to 0.01 μM. To each test well 100 μL of test compound solution was added and medium with vehicle was added to control wells and the plates were further incubated. After 48 h of incubation, plates were terminated by Sulforhodamine B method.
(§3) The optical density which is proportional to protein mass, is then-read by automated spectrophotometric plate reader at a wavelength of 515 nm.

H522 = experiment: as above; format: cell-based, human; settings: LUNG: H522, 48 h incubation, read-out: GROWTH INHIBITION (GI 50)
Protocol: as §1, §2, §3

HT29 = experiment: as above; format: cell-based, human; settings: COLON: HT29, 48 h incubation, read-out: GROWTH INHIBITION (GI 50)
Protocol: as §1, §2, §3

MCF-7/ADR = experiment: as above; format: cell-based, human; settings: BREAST: MCF-7/ADR, 48 h incubation, read-out: GROWTH INHIBITION (GI 50)
Protocol: as §1, §2, §3

MCF7 = experiment: as above; format: cell-based, human; settings: BREAST: MCF7, 48 h incubation, read-out: GROWTH INHIBITION (GI 50)
Protocol: as §1, §2, §3

PA1 = experiment: as above; format: cell-based, human; settings: OVARIAN: PA1, 48 h incubation, read-out: GROWTH INHIBITION (GI 50)
Protocol: as §1, §2, §3

SKOV-3 = experiment: as above; format: cell-based, human; settings: OVARIAN: SKOV-3, 48 h incubation, read-out: GROWTH INHIBITION (GI 50)
Protocol: as §1, §2, §3

SW-620 = experiment: as above; format: cell-based, human; settings: COLON: SW-620, 48 h incubation, read-out: GROWTH INHIBITION (GI 50)
Protocol: as §1, §2, §3

U251 = experiment: as above; format: cell-based, human; settings: CNS: U251, 48 h incubation, read-out: GROWTH INHIBITION (GI 50)
Protocol: as §1, §2, §3

UACC62 = experiment: as above; format: cell-based, human; settings: MELANOMA: UACC62, 48 h incubation, read-out: GROWTH INHIBITION (GI 50)
Protocol: as §1, §2, §3

Human lymphocytes = experiment: Lymphocyte proliferation, tritiated thymidine incorporation; format: cell-based; settings: Concentration 1 μM; human lymphocytes with Phytohemagglutitin A
Protocol: Human lymphocytes were isolated from whole blood by using Ficoll Hypaque Plus (Amersham). On day one, 1 million lymphocytes were seeded into each well of 96 well plate in 100 μL volume of RPMI 1640 medium containing 10% FCS and Phytohemagglutitin A at 1 μg/well concentration. Plates were incubated at 37° C. in CO2 incubator for 24 h. Test compounds at various concentrations were added to test wells and only medium with vehicle was added to control wells. After 48 h of incubation […] of tritiated thymidine was added to each well. After 24 h of thymidine addition the cells were harvested and the incorporated radioactivity was determined. Stimulation Index (SI) was calculated using the formula, [formula]
A^T=Average CPM of treated wells,
A^C=Average CPM of control wells.

Compound: C=C1CCC2[C@](C)(CO)[C@H](O)CC[C@]2(C)[C@H]1CC([Se]c1ccccc1)C1=CCOC1=O (some centres unmarked)
melting point: 186 °C

Compound: 3,19-Diacetyl-14-deoxy-12-[N^1-(5-iodouracil)]andrographolide [Example 48]
GI50 (A498): 3 µM
GI50 (H522): 4 µM
GI50 (HT29): 4 µM
GI50 (MCF-7/ADR): 2 µM
GI50 (MCF7): 2 µM
GI50 (PA1): 2 µM
GI50 (SKOV-3): 3 µM
GI50 (SW-620): 4 µM
GI50 (U251): 2 µM
GI50 (UACC62): 3 µM
Stimulation Index (SI) (Human lymphocytes): 130

Compound: C=C1CCC2[C@]3(C)COC(C)(c4ccccc4)OC3CC[C@]2(C)[C@H]1CC(NC(C(=O)OC)c1ccccc1)C1=CCOC1=O (some centres unmarked) [Example 2, 14-Deoxy-12-(O-methylphenylglycino)-3,19-O-(1-phenylethylidene) androgrpaholide]
melting point: 91 °C

Compound: C=C1CCC2C(C)(COC(C)=O)C(OC(C)=O)CCC2(C)C1CC(NC(Cc1ccccc1)C(=O)OC)C1=CCOC1=O (centres unmarked) [Example 6, 3,19-Diacetyl-14-deoxy-12-(O-methylphenylalano)andrographolide]
Stimulation Index (SI) (Human lymphocytes): 92

Compound: C=C1CCC2C(C)(COC(C)=O)C(OC(C)=O)CCC2(C)C1CC(NC(CC[Se]C)C(=O)OC)C1=CCOC1=O (centres unmarked) [Example 12, 3,19-Diacetyl-14-deoxy-12-(O-methylselenomethionino)andrographolide]
Stimulation Index (SI) (Human lymphocytes): 40

Compound: C=C1CCC2[C@](C)(CO)C(O)CC[C@]2(C)[C@H]1CC(NC(C(=O)OC)c1ccccc1)C1=CCOC1=O (some centres unmarked) [Example 19, 14-Deoxy-12-(O-methylphenylglycino)andrographolide]
melting point: 68 °C

Compound: C=C1CCC2[C@]3(C)COC(C)(C)OC3CC[C@]2(C)[C@H]1CC(NC(Cc1ccccc1)C(=O)OC)C1=CCOC1=O (some centres unmarked) [Example 20, 14-Deoxy-3,19-O-isopropylidene-12-(methylphenylalanino)andrographolide]
melting point: 57 °C

Compound: C=C1CCC2[C@]3(C)COC(C)(c4ccccc4)OC3CC[C@]2(C)[C@H]1CC(NCc1ccccc1)C1=CCOC1=O (some centres unmarked) [Example 21, 12-(N-Benzylamino)-14-deoxy-3,19-O-(1-phenylethylidene)andrographolide]
GI50 (A498; Homo sapiens): 2 µM
GI50 (H522; Homo sapiens, NCI-H522): 3 µM
GI50 (HT29; Homo sapiens, HT-29): 3 µM
GI50 (MCF-7/ADR; Homo sapiens, NCI/ADR-RES): 1 µM
GI50 (MCF7; Homo sapiens): 3 µM
GI50 (PA1; Homo sapiens, PA-1): 2 µM
GI50 (SKOV-3; Homo sapiens, SK-OV-3): 2 µM
GI50 (SW-620; Homo sapiens): 2 µM
GI50 (U251; Homo sapiens, U-251): 2 µM
GI50 (UACC62; Homo sapiens, UACC-62): 2 µM
Stimulation Index (SI) (Human lymphocytes): 16
melting point: 149.6 °C

Compound: C=C1CCC2[C@]3(C)COC(c4ccccc4)OC3CC[C@]2(C)[C@H]1CC(NCc1ccccc1)C1=CCOC1=O (some centres unmarked) [Example 24, 3,19-O-Benzylidene-12-(N-benzylamino)-14-deoxy andrographolide]
melting point: 172 to 173 °C

Compound: C=C1CCC2[C@](C)(CO)[C@H](O)CC[C@]2(C)[C@H]1CC(Nc1cccc(C)c1C)C1=CCOC1=O (some centres unmarked) [Example 28, 1-(2,3-Dimethylanilino)-14-deoxy andrographolide]
Stimulation Index (SI) (Human lymphocytes): 40

Compound: C=C1CCC2[C@](C)(CO)C(O)CC[C@]2(C)[C@H]1CC(Nc1ccc(OC)c(OC)c1)C1=CCOC1=O (some centres unmarked) [Example 37, 14-Deoxy-12-(3,4-dimethoxyanilino)andrographolide]
melting point: 225 to 230 °C

Compound: C=C1CCC2[C@]3(C)COC(C)(C)OC3CC[C@]2(C)[C@H]1CC(Nc1cccc(C)c1C)C1=CCOC1=O (some centres unmarked) [Example 38, 14-Deoxy-3,19-O-isopropylidene-12-(2,3-dimethylanilino)andrographolide]
melting point: 192.5 °C

Compound: C=C1CCC2[C@](C)(COC(C)=O)C(OC(C)=O)CC[C@]2(C)[C@H]1CC(OC(C)=O)C1=CCOC1=O (some centres unmarked) [Example 74, 12-Acetoxy-3,19-diacetyl-14-deoxy andrographolide]
melting point: 152.7 °C

Second part, led by results:

melting point: 118 °C
Compound: C=C1CCC2[C@]3(C)COC(c4ccccc4)OC3CC[C@]2(C)[C@H]1CC(Nc1cccc(C)c1C)C1=CCOC1=O (some centres unmarked) [Example 40, 3,19-O-Benzylidene-14-deoxy-12-(2,3-dimethylanilino)andrographolide]

melting point: 163 °C
Compound: C=C1CCC2[C@](C)(CO)[C@H](O)CC[C@]2(C)[C@H]1CC(Nc1cc[nH]c(=O)n1)C1=CCOC1=O (some centres unmarked) [Example 49, 14-Deoxy-12-[N-(1,2-dihydro-2-pyrimidinone)amino]andrographolide]

melting point: 164 °C
Compound: C=C1CCC2[C@](C)(CO)[C@H](O)CC[C@]2(C)[C@H]1CC(C1=CCOC1=O)n1ccc(=O)[nH]c1=O (some centres unmarked) [Example 50, 14-Deoxy-12-(N^1-uracil)andrographolide]

melting point: 185 °C
Compound: C=C1CCC2[C@](C)(CO)[C@H](O)CC[C@]2(C)[C@H]1CC(C1=CCOC1=O)n1cc(Br)c(=O)[nH]c1=O (some centres unmarked) [Example 52, 14-Deoxy-12-[N^1-(5-bromouracil)]andrographolide]

melting point: 187 to 188 °C
Compound: C=C1CCC2[C@](C)(CO)[C@H](O)CC[C@]2(C)[C@H]1CC(C1=CCOC1=O)n1cc(I)c(=O)[nH]c1=O (some centres unmarked) [Example 53, 14-Deoxy-12-[N^1-(5-iodouracil)]andrographolide]

melting point: 90 °C
Compound: C[C@]1(CO)C2CC[C@]3(CO3)[C@H](CC(Sc3ccccc3)C3=CCOC3=O)[C@@]2(C)CC[C@H]1O (some centres unmarked) [Example 54, 14-Deoxy-8,17-epoxy-12-phenylthio andrographolide]

melting point: 105 °C
Compound: C=C1CCC2[C@](C)(CO)[C@H](O)CC[C@]2(C)[C@H]1CC(Sc1ccccc1)C1=CCOC1=O (some centres unmarked) [Example 63, 14-Deoxy-12-phenylthio andrographolide]
Stimulation Index (SI) (Human lymphocytes): 59

melting point: 160 °C
Compound: C=C1CCC2[C@](C)(CO)[C@H](O)CC[C@]2(C)[C@H]1CC(SCC)C1=CCOC1=O (some centres unmarked) [Example 64, 14-Deoxy-12-ethylthio andrographolide]

melting point: 154.1 °C
Compound: C=C1CCC2[C@]3(C)COC(C)(c4ccccc4)OC3CC[C@]2(C)[C@H]1CC(Sc1ccccc1)C1=CCOC1=O (some centres unmarked) [Example 67, 14-Deoxy-3,19-O-(1-phenylethylidene)-12-phenylthio andrographolide]

melting point: 122.5 to 125 °C
Compound: C=C1CCC2[C@]3(C)COC(C)(c4ccccc4)OC3CC[C@]2(C)[C@H]1CC(SCC)C1=CCOC1=O (some centres unmarked) [Example 68, 14-Deoxy-3,19-O-(1-phenylethylidene)-12-ethylthio andrographolide]

melting point: 74 to 76 °C
Compound: C=C1CCC2[C@]3(C)COC(c4ccccc4)OC3CC[C@]2(C)[C@H]1CC(Sc1ccccc1)C1=CCOC1=O (some centres unmarked) [Example 69, 3,19-O-Benzylidene-14-deoxy-12-phenylthio andrographolide]

melting point: 80 °C
Compound: CCC(=O)OC[C@@]1(C)C2CC[C@]3(CO3)[C@H](CC(OC(=O)CNC(=O)OC(C)(C)C)C3=CCOC3=O)[C@@]2(C)CC[C@H]1OC(=O)CC (some centres unmarked) [Example 77, 12-(N-Bocglycinyloxy)-14-deoxy-8,17-epoxy-3,19-dipropionyl andrographolide]
